Here are results for one molecule from US20120238532A1, “TREATMENT OF HUMAN OSTEOSARCOMA” (CEDARS-SINAI MEDICAL CENTER, priority 2009, published 2012).

Structures are written as SMILES.

One series relates to MG-63 cells. In words: Morphological changes (crystal violet staining), MG-63. It is filed as cell-based, human. The procedure:
FIG. 2. (A) Graphical representation of the effect of CuB on MG-63 and SAOS-2 cells. Cells were exposed to CuB at their ED50 (70 nM for MG-63 and 50 nM for SAOS-2 cells). Time-dependent antiproliferative activity of CuB on MG-63 and SAOS-2 cells measured by pulse-exposure experiments. Cells were exposed to CuB for 2, 9, or 20 hours, washed extensively, and cultured in the absence of CuB for an additional 24, 48, and 72 hours. Cell growth was measured by MTT assay. Measurements were repeated in triplicates. Data represent mean±SD. Asterisks (**) represent p<0.001 vs DMSO control by t-test. (B) Morphological changes of MG-63 and SAOS-2 cells after exposure to cucurbitacin B. Cells with normal morphology (top) were compared to rounded cells (middle) and multinucleated cells (bottom). […] Representative cells are shown. 400×; scale bar=50 μm. (C) Graphical representation of G2/M cell cycle arrest after 20 hours of exposure to cucurbitacin B. Cells were stained with propidium iodide (PI) and analyzed by FACS. (D) Graphical representation of apoptosis after 72 hours of exposure to cucurbitacin B. Cells were stained with PI and Annexin V-FITC, and analyzed by FACS.

For a further series, the system named is S6K and 4EBP1. The experiment in a line: Western blotting, downstream targets of mTOR. The following applies: MG-63 and SAOS-2 cells. The format is cell-based, human. The procedure: (§1) Changes in protein level by CuB were checked by Western blotting. […] After 2, 9, and 20 hours of exposure, cells were harvested and immediately lysed with RIPA buffer (Millipore—Upstate, Temecula, Calif.) supplemented with protease inhibitor cocktail (Roche, San Francisco, Calif.), 0.5 mM PMSF (Roche), and 50 mM NaF (Sigma). After 20 minutes of incubation on ice, protein concentrations were measured by Bradford assay with Bio Rad protein assay solution (Bio-Rad, Hercules, Calif.) and samples were adjusted to the same protein concentration. Samples were mixed with 2× Laemmli sample buffer (Bio-Rad) with 5% β-mercaptoethanol (Sigma) and incubated at 95° C. for 10 min to denature the protein. After brief incubation on ice, proteins were separated by SDS-PAGE, transferred to nitrocellulose membrane (Sigma), and blotted with antibodies from either Cell Signaling Technology (Danvers, Mass.) or Santa Cruz Biotechnology (Santa Cruz, Calif.). Target proteins were visualized by Supersignal West Dura Substrate (Thermo-Pierce, Rockford, Ill.). GAPDH protein was used as a loading control.

For the next series, the system named is SAOS-2 cells. In words: Cell cycle analysis (PI, FACS), SAOS-2. It is filed as cell-based, human. The procedure: Cells were harvested and fixed with 70% ethanol at regular time intervals. Fixed cells were stained with propidium iodide (PI) for flow cytometry analysis using BD FACScan (BD Biosciences, San Jose, Calif.). Distribution of cell cycle was analyzed by ModFit LT V2.0 software (Verity Software House, Topsham, Me.). […] After 24, 48, and 72 hours of exposure, cells were harvested and stained with PI and fluorescein isothiocyanate (FITC) using Annexin V-FITC apoptosis detection kit (BD Biosciences) according to the manufacturer's protocol. Cells were subjected to flow cytometry analysis within one hour of staining.

Series [1] is described as follows: Body weight and side-effects during xenograft treatment. It is filed as in vivo, mice. Conditions: week 1, returned to normal in subsequent weeks. The procedure:
All animal experiments strictly followed the guidelines of Cedars-Sinai Medical Center and the National Institute of Health (NIH). Female nu/nu athymic nude mice (5-6 weeks old; average weight 21 g; specific pathogen-free) from Harlan Laboratories (Indianapolis, Ind.) were maintained in pathogen-free condition with sterilized chow and water. 5×10^6 cells of MG-63 cells were mixed with 200 μl of Matrigel solution (BD Biosciences) per injection, and the mixture was injected subcutaneously on the upper flanks of nude mice. After 24 hours, tumor size was measured, and any outliers were ruled out by one-way analysis of variance (ANOVA) test. […] The dose of LD-MTX was the murine equivalent of the human dose of LD-MTX. The conversion was made using dose translation formula by Reagan-Shaw et al., (15). […] Body weights were monitored every 2 days. Tumor size was measured every 2 days, and the tumor volume was calculated using the following formula: A (length)×B (width)×C (height)×0.5236 (16). The experiment was stopped at day 35, and all mice were sacrificed. The presence of metastatic spread was examined macroscopically at the time of autopsy followed by histological examination. At least two tumors from each group were snap-frozen in liquid nitrogen for Western blotting.

The subject of series [2] is phospho-mTOR (S2448) and survivin. In words: Western blots from snap-frozen xenograft tumors. The following applies: mice treated with LD-CuB, day 35. The format is in vivo. The procedure:
as §1, with “Target proteins were visualized by Supersignal West Dura Substrate (Thermo-Pierce, Rockford, Ill.). GAPDH protein was used as a loading control.” left out
All animal experiments strictly followed the guidelines of Cedars-Sinai Medical Center and the National Institute of Health (NIH). […] After 24 hours, tumor size was measured, and any outliers were ruled out by one-way analysis of variance (ANOVA) test. […] Body weights were monitored every 2 days. Tumor size was measured every 2 days, and the tumor volume was calculated using the following formula: A (length)×B (width)×C (height)×0.5236 (16). […]
On the technique in general: In western blotting, separated proteins are transferred to a membrane and probed.

A further series relates to cyclin D1. In words: Western blotting, cyclin D1. The following applies: MG-63 cells. It is filed as cell-based, human. The procedure:
as §1

Series [3] concerns human OS cell lines (U2OS, G292, MG-63, HT-161, HOS, SAOS-2, and SJSA). In words: MTT assay, dose-response in human OS cell lines. It is filed as cell-based. The procedure:
7 human OS cell lines (U2OS, G292, MG-63, HT-161, HOS, SAOS-2, and SJSA) were used in the study. Each cell line except HT-161 was obtained from the American Type Culture Collection (ATCC, Rockville, Md.). HT-161 was obtained from Dr. Emil Bogenmann (13). All cell lines were tested and authenticated prior to use according to cell line verification test recommendations by ATCC. OS cell lines were maintained in DMEM medium (Mediatech Inc., Herndon, Va.) supplemented with 10% fetal bovine serum (FBS; Atlanta Biological, Lawrenceville, Ga.) in a humidified incubator at 37° C. supplied with 5% CO2. Only the cells in exponential growth phase were used in the study.
Cell growth and survival were measured by 3-(4,5-dimethylthiazol-2-yl)-2,5-diphenyltetrazolium bromide (MTT) assay. […] After 48 hours of incubation, 10 μl of 5 mg/ml MTT solution (Sigma-Aldrich, St. Louis, Mo.) was added to each well and incubated further for 2 hours. […] For pulse-exposure experiments, MG-63 and SAOS-2 cells were seeded in 96-well plates and exposed to CuB at their ED50. After 2, 9, and 20 hours of exposure, cells were washed twice with PBS and incubated further in CuB-free media. Cell growth was checked by MTT assay at 24, 48, and 72 hours.

The next series in a line: Organ weight in mice. The format is in vivo. The following applies: day 35. The source says:
At autopsy, tumors and internal organs including liver, spleen, kidneys were excised, weighed, and then fixed in 10% PBS-buffered formalin and maintained in 70% ethanol. For IHC, fixed tumors and organs were embedded in paraplast (Oxford Labware, St. Louis, Mo.), cut in 6 μm thick sections, and stained with hematoxylin and eosin (HE) for histopathological examination.

As to `CC(=O)OC(C)(C)/C=C/C(=O)[C@](C)(O)[C@H]1[C@H](O)C[C@@]2(C)[C@@H]3CC=C4[C@H](C[C@H](O)C(=O)C4(C)C)[C@]3(C)C(=O)C[C@]12C` [CuB, cucurbitacin B], the morphological changes result in the series on MG-63 cells (2 hour exposure) was “Rapid loss of pseudopodia and rounding”; in the series with MG-63 cells (9 hour-exposure) it was “multinuclearity which was not reversed by CuB removal”. In addition, the “downstream targets of mTOR (S6K, 4EBP1)” value in the series with S6K and 4EBP1 is “Inhibition of downstream targets of mTOR such as S6K and 4EBP1”. Also, in the series with SAOS-2 cells (20 hours of exposure), the “increase of G2/M phase” value is recorded as “around 3 fold”. In addition, in the series with SAOS-2 cells (20 hours of exposure at ED50 (control 15%)), the G2/M phase came to 42%. Further, the initial weight loss result in series [1] (HD-CuB 1.0 mg/kg) and in series [1] (LD-CuB 0.5 mg/kg) was “up to 5%” in each case. Besides, in series [2], the “phospho-mTOR (S2448) and survivin in tumors” value was “decreased amount of phospho-mTOR (S2448) and its downstream target survivin”. The “levels of cyclin D1” value with cyclin D1 was “Decrease in the levels of cyclin D1 occurred in MG-63”. Moreover, in series [3], the “cytotoxic activity in human OS cells” value was “dose- and time-dependent”. For the same molecule, the Kidney organ weight in the series “Organ weight in mice” (HD-CuB 1.0 mg/kg) was 370 ± 1 mg; in the series “Organ weight in mice” (LD-CuB 0.5 mg/kg) it was 360 ± 1 mg. Besides, the Liver organ weight worked out at 1260 ± 141 mg in “Organ weight in mice” (HD-CuB 1.0 mg/kg) and 1250 ± 60 mg in “Organ weight in mice” (LD-CuB 0.5 mg/kg). Besides, the Spleen organ weight in “Organ weight in mice” (HD-CuB 1.0 mg/kg) was determined as 110 ± 1 mg; in the series “Organ weight in mice” (LD-CuB 0.5 mg/kg), 117 ± 6 mg.
